# Experimental data published in ChEMBL document CHEMBL1134380, “Discovery and optimization of a novel series of thrombin receptor (par-1) antagonists: potent, selective peptide mimetics based on indole and indazole templates” (J Med Chem, 2001).
# Experiments:
# [1] = target: T1, Proteinase-activated receptor 1 (Homo sapiens, UniProt P25116); assay: Binding affinity against Protease-activated receptor (PAR-1) using [3H]-s-(p-F-Phe)-homoarginine-L-homoarginine-KY-NH2, 10 nM (Kd= 15 nM)
# T1 sequence (P25116 whole entry): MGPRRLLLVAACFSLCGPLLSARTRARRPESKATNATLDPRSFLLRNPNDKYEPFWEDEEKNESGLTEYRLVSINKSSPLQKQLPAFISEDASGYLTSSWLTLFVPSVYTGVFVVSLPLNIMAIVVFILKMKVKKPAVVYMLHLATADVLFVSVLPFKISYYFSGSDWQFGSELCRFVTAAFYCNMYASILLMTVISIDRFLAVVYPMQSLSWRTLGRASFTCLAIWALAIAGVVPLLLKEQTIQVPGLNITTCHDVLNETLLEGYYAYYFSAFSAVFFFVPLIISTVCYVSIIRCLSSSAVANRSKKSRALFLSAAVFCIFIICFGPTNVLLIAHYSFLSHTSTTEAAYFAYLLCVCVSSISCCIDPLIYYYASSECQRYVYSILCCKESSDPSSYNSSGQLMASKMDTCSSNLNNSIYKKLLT
# [2] = In vitro antagonist activity against SFLLRN-NH2 induced gel-filtered platelet (GFP) aggregation at 2 uM; assay type: functional
# [3] = In vitro antagonist activity against U-46,619 induced gel-filtered Platelet (GFP) aggregation at 0.3 uM; assay type: functional
# [4] = In vitro antagonist activity against collagen induced gel-filtered platelet (GFP) aggregation at 3 ug/mL
# [5] = Calcium flux by HMVEC Calcium mobilization assay at 2.0 nM alpha thrombin.; assay type: functional; design: unit not given here
# [6] = Proliferation by RASMC proliferation assay at 0.8 nM alpha thrombin.; design: unit not given here
# [7] = in vitro antagonist activity against U-46,619 induced gel-filtered Platelet (GFP) aggregation at 0.3 uM; assay type: functional
# [8] = Calcium flux by RASMC Calcium mobilization assay at 2.0 nM alpha thrombin.; assay type: functional; design: unit not given here
# [9] = In vitro antagonist activity against U-46,619 induced gel-filtered Platelet (GFP) aggregation at 50 uM; NA=Inactive; assay type: functional
# [10] = target: T1, Proteinase-activated receptor 1; assay: Binding Affinity of ligand against Protease-activated Receptor (PAR-1) using [3H]-s-(p-F-Phe)-homoarginine-L-homoarginine-KY-NH2, 10 nM (Kd= 15 nM)
IC50 [1] [nM],IC50 [2] [nM],IC50 [3] [µM],IC50 [4] [µM],IC50 [7] [µM],IC50 [10] [nM],Structure (SMILES),Ca2+ flux [5],Proliferation [6],Ca2+ flux [8],IC50 [9]
2400,3200,25.5,24.2,,,COc1ccc(C[C@H](NC(=O)Nc2ccc3c(CN4CCCC4)cn(Cc4ccc(OC(F)(F)F)cc4)c3c2)C(=O)N[C@@H](CCCN=C(N)N)C(=O)NCc2ccccc2)cc1,,,,
40,360,,,13.3,,N=C(N)NCCC[C@H](NC(=O)[C@H](Cc1ccc(F)c(F)c1)NC(=O)Nc1ccc2c(CN3CCCC3)cn(Cc3c(Cl)cccc3Cl)c2c1)C(=O)NCc1ccncc1,0.17,6.5,0.21,
,110,,,,150,NCC[C@H](NC(=O)[C@H](Cc1ccc(F)c(F)c1)NC(=O)Nc1ccc2c(CN3CCCC3)nn(Cc3c(Cl)cccc3Cl)c2c1)C(=O)NCc1ccccc1 [RWJ-58259],,2.3,0.07,Not Active
10700,2200,49.1,41.4,,,COc1ccc(C[C@H](NC(=O)Nc2ccc3c(CNC4CCCC4)cn(Cc4ccc(F)cc4)c3c2)C(=O)N[C@@H](CCCN=C(N)N)C(=O)NCc2ccccc2)cc1,,,,
700,300,,12.7,,,N=C(N)NCCC[C@H](NC(=O)[C@H](Cc1ccccc1)NC(=O)Nc1ccc2c(CN3CCCC3)cn(Cc3ccc(F)cc3)c2c1)C(=O)NCc1ccccc1,,,,

Structure (SMILES),IC50 [1] [nM],IC50 [2] [nM],IC50 [3] [µM],IC50 [4] [µM],IC50 [7] [µM],IC50 [10] [nM],Ca2+ flux [5],Proliferation [6],Ca2+ flux [8],IC50 [9]
COc1ccc(C[C@H](NC(=O)Nc2ccc3c(CN4CCCC4)cn(Cc4ccc(F)cc4)c3c2)C(=O)N[C@@H](CCCN=C(N)N)C(=O)NCc2ccccc2)cc1,2200,270,,,,,0.54,> 30,7.8,Not Active
N=C(N)NCCC[C@H](NC(=O)[C@H](Cc1ccc(F)c(F)c1)NC(=O)Nc1ccc2c(CN3CCCC3)cn(Cc3c(Cl)cccc3Cl)c2c1)C(=O)NCc1ccccc1,820,180,,,,,0.09,2.4,0.13,Not Active
COc1ccc(C[C@H](NC(=O)Nc2ccc3c(CN4CCCC4)cn(Cc4c(Cl)cccc4Cl)c3c2)C(=O)N[C@@H](CCCNC(=N)N)C(=O)NCc2ccccc2)cc1 [RWJ-54003],1300,300,,46.3,,,0.33,7.3,0.93,Not Active
